Measured values: PubChem BioAssay (NCI)
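1) Cells in 96-well plates. 2) Compound, 48 h, 5 concentrations. 3) Linear interpolation between surrounding doses. 4) Unreached endpoint = highest concentration. TGI: total growth inhibition.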

Assays:
Test in all cases: NCI anticancer screen, dose series, 48 h
M14 melanoma = system: M14 melanoma
MALME-3M melanoma = system: MALME-3M melanoma
SNB-75 CNS = system: SNB-75 CNS
KM12 colon = system: KM12 colon
MCF7 breast = system: MCF7 breast
LOX IMVI melanoma = system: LOX IMVI melanoma
SK-MEL-28 melanoma = system: SK-MEL-28 melanoma
IGROV1 ovarian = system: IGROV1 ovarian
MDA-MB-231 breast = system: MDA-MB-231 breast
786-0 renal = system: 786-0 renal
OVCAR-5 ovarian = system: OVCAR-5 ovarian
HT29 colon = system: HT29 colon
U251 CNS = system: U251 CNS
UACC-257 melanoma = system: UACC-257 melanoma
A498 renal = system: A498 renal
HCT-116 colon = system: HCT-116 colon
CAKI-1 renal = system: CAKI-1 renal
PC-3 prostate = system: PC-3 prostate
SK-MEL-5 melanoma = system: SK-MEL-5 melanoma
SNB-19 CNS = system: SNB-19 CNS
MDA-N = system: MDA-N
K-562 leukemia = system: K-562 leukemia
SF-295 CNS = system: SF-295 CNS
OVCAR-8 ovarian = system: OVCAR-8 ovarian
SK-MEL-2 melanoma = system: SK-MEL-2 melanoma
SF-268 CNS = system: SF-268 CNS
NCI/ADR-RES ovarian = system: NCI/ADR-RES ovarian
SF-539 CNS = system: SF-539 CNS
MOLT-4 leukemia = system: MOLT-4 leukemia
CCRF-CEM leukemia = system: CCRF-CEM leukemia
NCI-H23 lung = system: NCI-H23 lung
ACHN renal = system: ACHN renal
RXF 393 renal = system: RXF 393 renal
T-47D breast = system: T-47D breast
HL-60(TB) leukemia = system: HL-60(TB) leukemia
OVCAR-3 ovarian = system: OVCAR-3 ovarian
HS 578T breast = system: HS 578T breast
DU-145 prostate = system: DU-145 prostate
COLO 205 colon = system: COLO 205 colon
MDA-MB-435 = system: MDA-MB-435
SN12C renal = system: SN12C renal
EKVX NSCLC = system: EKVX NSCLC
TK-10 renal = system: TK-10 renal
BT-549 breast = system: BT-549 breast
SW-620 colon = system: SW-620 colon
UACC-62 melanoma = system: UACC-62 melanoma
UO-31 renal = system: UO-31 renal
RPMI-8226 leukemia = system: RPMI-8226 leukemia
NCI-H226 lung = system: NCI-H226 lung
HCT-15 colon = system: HCT-15 colon
HOP-92 NSCLC = system: HOP-92 NSCLC
A549 NSCLC = system: A549 NSCLC
HOP-62 NSCLC = system: HOP-62 NSCLC
SK-OV-3 ovarian = system: SK-OV-3 ovarian
NCI-H522 lung = system: NCI-H522 lung
NCI-H460 lung = system: NCI-H460 lung
OVCAR-4 ovarian = system: OVCAR-4 ovarian
HCC-2998 colon = system: HCC-2998 colon

`CCOC(=O)CO/N=C\C1=CC(=O)C2CC1C2(C)C` (stereo not drawn) was tested, and the TGI (M14 melanoma) was > 100 µM, the TGI (MALME-3M melanoma) was > 100 µM and the TGI (SNB-75 CNS) was > 100 µM. For the same compound, the TGI (KM12 colon) was > 100 µM, the TGI (MCF7 breast) was > 100 µM and the TGI (LOX IMVI melanoma) was > 100 µM. For the same compound, the TGI (SK-MEL-28 melanoma) was > 100 µM, the TGI (IGROV1 ovarian) was > 100 µM and the TGI (MDA-MB-231 breast) was > 100 µM. The TGI (786-0 renal) was > 100 µM, the TGI (OVCAR-5 ovarian) was > 100 µM and the TGI (HT29 colon) was > 100 µM. For the same compound, the TGI (U251 CNS) was > 100 µM, the TGI (UACC-257 melanoma) was > 100 µM and the TGI (A498 renal) was > 100 µM. For the same compound, the TGI (HCT-116 colon) was > 100 µM, the TGI (CAKI-1 renal) was > 100 µM and the TGI (PC-3 prostate) was > 100 µM. The TGI (SK-MEL-5 melanoma) was > 100 µM, the TGI (SNB-19 CNS) was > 100 µM and the TGI (MDA-N) was > 100 µM. The TGI (K-562 leukemia) was > 100 µM, the TGI (SF-295 CNS) was > 100 µM and the TGI (OVCAR-8 ovarian) was > 100 µM. For the same compound, the TGI (SK-MEL-2 melanoma) was > 100 µM, the TGI (SF-268 CNS) was > 100 µM and the TGI (NCI/ADR-RES ovarian) was > 100 µM. The TGI (SF-539 CNS) was > 100 µM, the TGI (MOLT-4 leukemia) was > 100 µM and the TGI (CCRF-CEM leukemia) was > 100 µM. The TGI (NCI-H23 lung) was > 100 µM, the TGI (ACHN renal) was > 100 µM and the TGI (RXF 393 renal) was > 100 µM. The TGI (T-47D breast) was > 100 µM, the TGI (HL-60(TB) leukemia) was > 100 µM and the TGI (OVCAR-3 ovarian) was > 100 µM. For the same compound, the TGI (HS 578T breast) was > 100 µM, the TGI (DU-145 prostate) was > 100 µM and the TGI (COLO 205 colon) was > 100 µM. The TGI (MDA-MB-435) was > 100 µM, the TGI (SN12C renal) was > 100 µM and the TGI (EKVX NSCLC) was > 100 µM. For the same compound, the TGI (TK-10 renal) was > 100 µM, the TGI (BT-549 breast) was > 100 µM and the TGI (SW-620 colon) was > 100 µM. The TGI (UACC-62 melanoma) was > 100 µM, the TGI (UO-31 renal) was > 100 µM and the TGI (RPMI-8226 leukemia) was > 100 µM. The TGI (NCI-H226 lung) was > 100 µM and the TGI (HCT-15 colon) was > 100 µM.
With `O=C1NC(N/N=C/c2cccs2)=N/C1=C\c1ccco1` the TGI (M14 melanoma) was > 100 µM, the TGI (MALME-3M melanoma) was > 100 µM and the TGI (SNB-75 CNS) was > 100 µM. The TGI (KM12 colon) was > 100 µM, the TGI (MCF7 breast) was > 100 µM and the TGI (LOX IMVI melanoma) was > 100 µM. For the same compound, the TGI (SK-MEL-28 melanoma) was > 100 µM, the TGI (HOP-92 NSCLC) was > 100 µM and the TGI (IGROV1 ovarian) was > 100 µM. For the same compound, the TGI (A549 NSCLC) was > 100 µM, the TGI (MDA-MB-231 breast) was > 100 µM and the TGI (786-0 renal) was > 100 µM. The TGI (OVCAR-5 ovarian) was > 100 µM, the TGI (HOP-62 NSCLC) was > 100 µM and the TGI (HT29 colon) was > 100 µM. The TGI (U251 CNS) was > 100 µM, the TGI (UACC-257 melanoma) was > 100 µM and the TGI (A498 renal) was 82.5 µM. For the same compound, the TGI (HCT-116 colon) was > 100 µM, the TGI (CAKI-1 renal) was > 100 µM and the TGI (PC-3 prostate) was > 100 µM. The TGI (SK-OV-3 ovarian) was 70.6 µM, the TGI (SK-MEL-5 melanoma) was > 100 µM and the TGI (SNB-19 CNS) was > 100 µM. The TGI (MDA-N) was 13.6 µM, the TGI (K-562 leukemia) was > 100 µM and the TGI (SF-295 CNS) was > 100 µM. The TGI (OVCAR-8 ovarian) was > 100 µM, the TGI (SK-MEL-2 melanoma) was 62.4 µM and the TGI (SF-268 CNS) was > 100 µM. The TGI (NCI/ADR-RES ovarian) was > 100 µM, the TGI (SF-539 CNS) was > 100 µM and the TGI (NCI-H522 lung) was 39.9 µM. For the same compound, the TGI (MOLT-4 leukemia) was > 100 µM, the TGI (CCRF-CEM leukemia) was > 100 µM and the TGI (NCI-H23 lung) was > 100 µM. For the same compound, the TGI (ACHN renal) was > 100 µM, the TGI (RXF 393 renal) was > 100 µM and the TGI (T-47D breast) was > 100 µM. For the same compound, the TGI (HL-60(TB) leukemia) was > 100 µM, the TGI (OVCAR-3 ovarian) was 74.4 µM and the TGI (HS 578T breast) was 76.7 µM. The TGI (DU-145 prostate) was > 100 µM, the TGI (COLO 205 colon) was > 100 µM and the TGI (MDA-MB-435) was 90.4 µM. The TGI (SN12C renal) was > 100 µM, the TGI (EKVX NSCLC) was > 100 µM and the TGI (TK-10 renal) was > 100 µM. The TGI (BT-549 breast) was > 100 µM, the TGI (SW-620 colon) was > 100 µM and the TGI (UACC-62 melanoma) was > 100 µM. The TGI (NCI-H460 lung) was > 100 µM, the TGI (UO-31 renal) was > 100 µM and the TGI (RPMI-8226 leukemia) was 94.8 µM. For the same compound, the TGI (OVCAR-4 ovarian) was > 100 µM, the TGI (NCI-H226 lung) was > 100 µM and the TGI (HCT-15 colon) was > 100 µM.
In the case of `C#CCCCCC#Cc1ccccc1C(=O)C=[N+]=[N-]`, the TGI (M14 melanoma) is reported as > 100 µM, the TGI (SNB-75 CNS) is reported as > 100 µM and the TGI (MCF7 breast) is reported as > 100 µM. The TGI (SK-MEL-28 melanoma) was > 100 µM, the TGI (HOP-92 NSCLC) was > 100 µM and the TGI (IGROV1 ovarian) was > 100 µM. The TGI (A549 NSCLC) was > 100 µM, the TGI (MDA-MB-231 breast) was > 100 µM and the TGI (786-0 renal) was > 100 µM. The TGI (OVCAR-5 ovarian) was > 100 µM, the TGI (HOP-62 NSCLC) was > 100 µM and the TGI (HT29 colon) was > 100 µM. For the same compound, the TGI (U251 CNS) was > 100 µM, the TGI (UACC-257 melanoma) was > 100 µM and the TGI (A498 renal) was > 100 µM. For the same compound, the TGI (HCT-116 colon) was > 100 µM, the TGI (CAKI-1 renal) was > 100 µM and the TGI (PC-3 prostate) was > 100 µM. For the same compound, the TGI (SK-OV-3 ovarian) was > 100 µM, the TGI (SK-MEL-5 melanoma) was > 100 µM and the TGI (SNB-19 CNS) was > 100 µM. For the same compound, the TGI (MDA-N) was > 100 µM, the TGI (K-562 leukemia) was > 100 µM and the TGI (SF-295 CNS) was > 100 µM. The TGI (OVCAR-8 ovarian) was > 100 µM, the TGI (HCC-2998 colon) was > 100 µM and the TGI (SK-MEL-2 melanoma) was > 100 µM. For the same compound, the TGI (SF-268 CNS) was > 100 µM, the TGI (SF-539 CNS) was > 100 µM and the TGI (NCI-H522 lung) was > 100 µM. The TGI (MOLT-4 leukemia) was > 100 µM, the TGI (NCI-H23 lung) was > 100 µM and the TGI (ACHN renal) was > 100 µM. For the same compound, the TGI (RXF 393 renal) was > 100 µM, the TGI (T-47D breast) was > 100 µM and the TGI (HS 578T breast) was > 100 µM. For the same compound, the TGI (DU-145 prostate) was > 100 µM, the TGI (COLO 205 colon) was > 100 µM and the TGI (MDA-MB-435) was > 100 µM. The TGI (SN12C renal) was > 100 µM, the TGI (EKVX NSCLC) was > 100 µM and the TGI (TK-10 renal) was > 100 µM. For the same compound, the TGI (BT-549 breast) was > 100 µM, the TGI (SW-620 colon) was > 100 µM and the TGI (UACC-62 melanoma) was > 100 µM. The TGI (NCI-H460 lung) was > 100 µM, the TGI (UO-31 renal) was > 100 µM and the TGI (RPMI-8226 leukemia) was > 100 µM. The TGI (OVCAR-4 ovarian) was > 100 µM, the TGI (NCI-H226 lung) was > 100 µM and the TGI (HCT-15 colon) was > 100 µM.
